For orientation: EC50 means the concentration giving half of the maximal effect.

Holding throughout (set-up): species or system Hepatitis C virus (HCV)
Assay [1] relates to HCV replicon 1A. As to the kind of experiment: Cell-based HCV replicon assay (Replicon Assay A), replicon 1A. Conditions: replicon RNA by real time PCR, cells harvested on day 3. The procedure:
(§1) To measure cell-based anti-HCV activity of compounds of the present invention, two complimentary assays were employed using various replicons. In the first assay (“Replicon Assay A”), replicon cells were seeded at 2000 cells/well in 384-well 384-well flat bottom tissue culture treated clear bottom plate (Corning 3707) in the presence of the test compound. Various concentrations of test compound, typically in 10 serial dilutions, were added to the assay mixture, with the starting concentration ranging from 333.3 nM to […]. The final concentration of DMSO was 0.5%. Fetal bovine serum was 5%, in the assay media. Cells were harvested on day 3 by removing media and washing the cells with a suitable wash buffer. The cells are lysed with the addition of 1× Qiagen lysis buffer (Cat #1062731). The replicon RNA level was measured using real time PCR (TaqMan® EZ RT-PCR, Applied Biosystems 403028) with the following primers and probes: […]
(§2) Cyclophilin RNA was used as endogenous control and was amplified in the same reaction as NS5B (multiplex PCR). The real-time RT-PCR reactions were run on ABI PRISM 7900HT Sequence Detection System using the following program: 50° C. for 2 minutes, 60° C. for 30 minutes, 95° C. for 5 minutes, 40 cycles of 94° C. for 20 sec, 55° C. for 1 minutes.
(§3) The amount of HCV replicon RNA per cell is quantified using a linear regression curve for a known nanogram (ng) amount of HCV replicon total RNA. This is established by plotting the Cycle Threshold values (Ct) from the Neo probe and primer set versus the log (ng) for each HCV replicon total RNA standard. The amount of HCV RNA for each replicon sample is calculated by taking the sample's Ct value, minus the line intercept, divided by the slope of the line. Similarly, the amount of Cyclophilin mRNA per cell is also quantified using a linear regression curve for a known nanogram (ng) amount of HCV replicon total RNA. Again, this is established by plotting the Cycle Threshold values (Ct) from the Cyclophilin probe and primer set versus the log (ng) for each HCV replicon total RNA standard.
(§4) Data was obtained for various compounds of the present invention using the methods described in the Example above, and is presented in the table immediately below. Data for replicons 1A, 1AY93H and 2B were obtained using Replicon Assay A and data for replicons 1B were obtained using Replicon Assay B.

In assay [2] the test system is HCV replicon 2B. Briefly: Cell-based HCV replicon assay (Replicon Assay A), replicon 2B. Conditions: read-out: Replicon EC50 (nM) 2B, replicon 2B, replicon RNA by real time PCR, cells harvested on day 3. The procedure: as §1, §2, §3, §4
For orientation: A replicon is a self-replicating genome or part of one, used to study replication in cells.

Assay [3] has as its system HCV replicon 1A Y93H. As to the kind of experiment: Cell-based HCV replicon assay (Replicon Assay A), replicon 1AY93H. Conditions: read-out: Replicon EC50 (nM) 1A Y93H, replicon 1A Y93H, replicon RNA by real time PCR, cells harvested on day 3. As for the experimental part: as §1, §2, §3, §4

Read-outs that look alike come from different tables or passages of the source.

With `COC(=O)N[C@H](C(=O)N1CCC[C@H]1c1ncc(-c2ccc3c(c2)OC(c2ccc(C)o2)n2c-3cc3cc(-c4cnc([C@@H]5C[C@@H](F)CN5C(=O)[C@@H](NC(=O)OC)C(C)C)[nH]4)ccc32)[nH]1)C(C)C` (some centres unmarked) [Compound 43], the EC50 in assay [1] (Hepatitis C virus, 72 h) stood at 0.0281 nM; in assay [2] (Hepatitis C virus, 72 h) it was 0.06 nM; in assay [3] (Hepatitis C virus, 72 h), 1.02 nM.
Consider `COC(=O)N[C@H](C(=O)N1CCC[C@H]1c1ncc(-c2cc(F)c3c(c2)OC(c2cc4ccccn4n2)n2c-3cc3cc(-c4cnc([C@@H]5CCCN5C(=O)[C@@H](NC(=O)OC)C(C)C)[nH]4)ccc32)[nH]1)C(C)C` (single isomer, unassigned) [Compound 40], for which the half-maximal effective concentration (EC50) came out at 0.0084 nM in assay [1], 1.54 nM in assay [2] and 0.536 nM in assay [3].
As for `CCc1nnc(C2Oc3cc(-c4cnc([C@@H]5CCCN5C(=O)[C@@H](NC(=O)OC)C(C)C)[nH]4)cc(F)c3-c3cc4cc(-c5cnc([C@@H]6CCCN6C(=O)C(NC(=O)OC)C(C)C)[nH]5)ccc4n32)s1` (single isomer, unassigned) [Compound 34], the EC50 came out at 0.0084 nM in assay [1] and 0.793 nM in assay [3] (Hepatitis C virus, 72 h).
Take `COC(=O)N[C@H](C(=O)N1CCC[C@H]1c1ncc(-c2cc(F)c3c(c2)OC(c2nc(C(C)C)ns2)n2c-3cc3cc(-c4cnc([C@@H]5CCCN5C(=O)[C@@H](NC(=O)OC)C(C)C)[nH]4)ccc32)[nH]1)C(C)C` (single isomer, unassigned) [Compound 32]: the EC50 amounted to 0.0022 nM in assay [1], 0.9 nM in assay [2] and 0.185 nM in assay [3].
Take `COC(=O)N[C@H](C(=O)N1CCC[C@H]1c1ncc(-c2cc(F)c3c(c2)OC(c2cnc4n2CCC4)n2c-3cc3cc(-c4cnc([C@@H]5CCCN5C(=O)[C@@H](NC(=O)OC)C(C)C)[nH]4)ccc32)[nH]1)C(C)C` (some centres unmarked) [Compound 13]: a half-maximal response in assay [1] (Hepatitis C virus, 72 h) (EC50) required 0.147 nM.
In the case of `COC(=O)N[C@H](C(=O)N1CCC[C@H]1c1ncc(-c2ccc3c(c2)OC(c2ccc(C)o2)n2c-3cc3cc(-c4cnc([C@@H]5C[C@H]6C[C@H]6N5C(=O)[C@@H](NC(=O)OC)C(C)C)[nH]4)ccc32)[nH]1)C(C)C` (some centres unmarked) [Compound 45], the EC50 in assay [1] (Hepatitis C virus, 72 h) is 0.0484 nM; in assay [3] (Hepatitis C virus, 72 h), 4.22 nM.
On to `COC(=O)N[C@H](C(=O)N1CCC[C@H]1c1ncc(-c2cc(F)c3c(c2)OC(c2cnns2)n2c-3cc3cc(-c4cnc([C@@H]5CCCN5C(=O)[C@@H](NC(=O)OC)C(C)C)[nH]4)ccc32)[nH]1)C(C)C` (single isomer, unassigned) [Compound 21], for which the figures for the EC50 in assay [2] and in assay [3] were 0.98 nM and 1.39 nM, respectively.
Take `CCc1cc(C2Oc3cc(-c4cnc([C@@H]5CCCN5C(=O)[C@@H](NC(=O)OC)C(C)C)[nH]4)cc(F)c3-c3cc4cc(-c5cnc([C@@H]6CCCN6C(=O)[C@@H](NC(=O)OC)C(C)C)[nH]5)ccc4n32)on1` (mixture of isomers) [Compound 5]: the EC50 in assay [2] (Hepatitis C virus, 72 h) came out at 4.17 nM; in assay [3] (Hepatitis C virus, 72 h), 0.708 nM.
On to `COC(=O)N[C@H](C(=O)N1CCC[C@@H]1c1ncc(-c2ccc3c(c2)cc2n3C(c3cnco3)Oc3cc(-c4cnc([C@H]5CCCN5C(=O)[C@H](NC(=O)OC)C(C)C)[nH]4)cc(F)c3-2)[nH]1)C(C)C` (single isomer, unassigned) [Compound 17], for which the EC50 in assay [1] stood at 0.0327 nM; in assay [2] (Hepatitis C virus, 72 h), 3.96 nM; in assay [3] it was 0.716 nM.
In the case of `CCc1cnc(C2Oc3cc(-c4cnc([C@@H]5CCCN5C(=O)[C@@H](NC(=O)OC)C(C)C)[nH]4)cc(F)c3-c3cc4cc(-c5cnc([C@@H]6CCCN6C(=O)[C@@H](NC(=O)OC)C(C)C)[nH]5)ccc4n32)o1` (single isomer, unassigned) [Compound 27], the EC50 in assay [1] (Hepatitis C virus, 72 h) came out at 0.0027 nM; in assay [2], 5.5 nM.
For `COC(=O)N[C@H](C(=O)N1CCC[C@H]1c1ncc(-c2cc(F)c3c(c2)O[C@@H](c2cc(C(C)C)no2)n2c-3cc3cc(-c4cnc([C@@H]5CCCN5C(=O)[C@@H](NC(=O)OC)C(C)C)[nH]4)ccc32)[nH]1)C(C)C` (single isomer, unassigned) [Compound 9], the EC50 is 0.0036 nM in assay [1] (Hepatitis C virus, 72 h); 0.27 nM in assay [2]; 0.05 nM in assay [3].
On to `COC(=O)N[C@H](C(=O)N1CCC[C@@H]1c1ncc(-c2ccc3c(c2)cc2n3C(c3cnco3)Oc3cc(-c4cnc([C@H]5CCCN5C(=O)[C@H](NC(=O)OC)C(C)C)[nH]4)cc(F)c3-2)[nH]1)C(C)C` (single isomer, unassigned) [Compound 18], for which the EC50 in assay [1] was determined as 0.0023 nM; in assay [2] it was 3.54 nM; in assay [3] it was 18.4 nM.
Regarding `COC(=O)N[C@H](C(=O)N1CCC[C@H]1c1ncc(-c2cc(F)c3c(c2)O[C@@H](c2cc(C(C)C)no2)n2c-3cc3cc(-c4cnc([C@@H]5CCCN5C(=O)[C@@H](NC(=O)OC)C(C)C)[nH]4)ccc32)[nH]1)C(C)C` (single isomer, unassigned) [Compound 10], the EC50 in assay [1] turned out to be 0.0027 nM; in assay [2], 1.05 nM; in assay [3] it was 1.43 nM.
As to `COC(=O)N[C@H](C(=O)N1CCC[C@H]1c1ncc(-c2ccc3c(c2)OC(c2ccc(C)o2)n2c-3cc3cc(-c4cnc([C@@H]5CCCN5C(=O)[C@@H](NC(=O)OC)C(C)C)[nH]4)ccc32)[nH]1)C(C)C` (some centres unmarked) [Compound 42], the EC50 stood at 0.0309 nM in assay [1] (Hepatitis C virus, 72 h); 6.16 nM in assay [2] (Hepatitis C virus, 72 h); 5.01 nM in assay [3] (Hepatitis C virus, 72 h).
For the molecule `COC(=O)N[C@H](C(=O)N1CCC[C@H]1c1ncc(-c2cc(F)c3c(c2)OC(c2nc4ccccc4n2C)n2c-3cc3cc(-c4cnc([C@@H]5CCCN5C(=O)[C@@H](NC(=O)OC)C(C)C)[nH]4)ccc32)[nH]1)C(C)C` (mixture of isomers) [Compound 11], the EC50 in assay [1] (Hepatitis C virus, 72 h) is 0.0081 nM; in assay [2] (Hepatitis C virus, 72 h), 8.23 nM; in assay [3] (Hepatitis C virus, 72 h) it was 21.6 nM.
Take `COC(=O)N[C@H](C(=O)N1CCC[C@@H]1c1ncc(-c2ccc3c(c2)cc2n3C(c3nnc(C)s3)Oc3cc(-c4cnc([C@H]5CCCN5C(=O)[C@H](NC(=O)OC)C(C)C)[nH]4)cc(F)c3-2)[nH]1)C(C)C` (single isomer, unassigned) [Compound 15]: the EC50 in assay [2] (Hepatitis C virus, 72 h) is 3.06 nM.
With `COC(=O)N[C@H](C(=O)N1CCC[C@H]1c1ncc(-c2ccc3c(c2)OC(c2ccc(C)o2)n2c-3cc3cc(-c4cnc([C@@H]5C[C@@H](F)CN5C(=O)[C@@H](NC(=O)OC)C5CCOCC5)[nH]4)ccc32)[nH]1)C(C)C` (some centres unmarked) [Compound 44], the EC50 in assay [1] (Hepatitis C virus, 72 h) was determined as 0.0679 nM; in assay [3] (Hepatitis C virus, 72 h) it was 0.434 nM.
Regarding `COC(=O)N[C@H](C(=O)N1CCC[C@H]1c1ncc(-c2cc(F)c3c(c2)OC(c2cc(C4CC4)no2)n2c-3cc3cc(-c4cnc([C@@H]5CCCN5C(=O)[C@@H](NC(=O)OC)C(C)C)[nH]4)ccc32)[nH]1)C(C)C` (single isomer, unassigned) [Compound 29], the EC50 in assay [2] turned out to be 0.46 nM; in assay [3], 3.25 nM.
As to `COC(=O)N[C@H](C(=O)N1CCC[C@H]1c1ncc(-c2cc(F)c3c(c2)OC(c2cc(C(C)C)no2)n2c-3cc3cc(-c4cnc([C@@H]5CCCN5C(=O)[C@@H](NC(=O)OC)C(C)C)[nH]4)ccc32)[nH]1)C(C)C` (single isomer, unassigned) [Compound 26], the EC50 was 0.8 nM in assay [2] and 0.816 nM in assay [3].
In the case of `COC(=O)N[C@H](C(=O)N1CCC[C@H]1c1ncc(-c2ccc3c(c2)OC(c2nnc(-c4ccccc4)o2)n2c-3cc3cc(-c4cnc([C@@H]5CCCN5C(=O)[C@@H](NC(=O)OC)C5CCOCC5)[nH]4)ccc32)[nH]1)C1CCOCC1` (mixture of isomers) [Compound 38], the 50% effective concentration (EC50) worked out at 0.223 nM in assay [1] (Hepatitis C virus, 72 h) and 0.737 nM in assay [3] (Hepatitis C virus, 72 h).
For the molecule `COC(=O)N[C@H](C(=O)N1CCC[C@@H]1c1ncc(-c2ccc3c(c2)cc2n3C(c3nnc(C)s3)Oc3cc(-c4cnc([C@H]5CCCN5C(=O)[C@H](NC(=O)OC)C(C)C)[nH]4)cc(F)c3-2)[nH]1)C(C)C` (single isomer, unassigned) [Compound 16], in assay [2], the EC50 was 1.75 nM.
For the molecule `COC(=O)N[C@H](C(=O)N1CCC[C@H]1c1ncc(-c2cc(F)c3c(c2)OC(c2cc4ccccn4n2)n2c-3cc3cc(-c4cnc([C@@H]5CCCN5C(=O)[C@@H](NC(=O)OC)C(C)C)[nH]4)ccc32)[nH]1)C(C)C` (mixture of isomers) [Compound 12], the EC50 in assay [1] (Hepatitis C virus, 72 h) was 0.0202 nM; in assay [2] (Hepatitis C virus, 72 h) it was 33.3 nM.

The values above are taken from patent US10646494B2, “Heterocycle-substituted tetracyclic compounds and methods of use thereof for the treatment of viral diseases” (Merck Sharp & Dohme Corp., priority 2016, dated 2020).
